The text below walks through data of US20200062738A1, “ANTI-CANCER STEMNESS DRUGS” (Development Center for Biotechnology, priority 2017, published 2020).

Assay [1] has as its system H1975-luc cells. The assay is described as follows: Orthotopic H1975-luc model, treatment starting 2 days after tumor implantation (FIG. 4). As to conditions: for tumor-free rate: 3 mpk IV, 5 times/week. It is filed as in vivo, mice. An excerpt: Mice were orthotopically implanted with H1975-luc cells (10^6 cells/mouse). On day 0 (defined as 2 days after tumor implantation), mice were given drug treatments for 4 weeks (5 times/week), and the tumor formations were followed by non-invasive imaging on days 14 and 28.
(§1) The mouse cancer models were generated as described above. Orthotopic H1975-Luc model was described as previous study. BI-44 was administrated by IV injection through tail vein, 5 times/7 days, with the doses indicated on the figure. Gefitinib and Afatinib were administrated orally, 5 times/7 days, with the dose of 20 mpk (mg/Kg).
In the first animal model, Mice were orthotopically implanted with H1975-luc cells (10^6 cells/mouse). On day 0 (defined as 2 days after tumor implantation), mice were started to receive drug treatments for 4 weeks (5 times/week), and the tumor formations were followed by non-invasive imaging on day 14 and 28.
BI-44 was administrated starting 2 days after orthotopic lung tumor implantation according to the administration scheme shown in FIG. 4A, and the tumor formations were evaluated via non-invasive bioluminescent imaging on days 14 and 28.

Another assay has as its system BMI-1. The assay is described as follows: BMI-1 protein expression by western blot in H1975 cells. It is filed as cell-based, human. As to conditions: for BMI-1 protein expression: 10 μM, 6 h, western blot; for inhibition of BMI-1 expression, dose dependence: different concentrations, western blot (#44: 6 h). Here is the method:
(§2) The abilities of compounds of the invention to inhibit BMI-1/MCl-1 expressions were assayed with cell cultures. BMI-1 and MCL-1 are overexpressed in many cancers, such as lung cancer cell line H1975. Therefore, cancer cells that overexpress BMI-1/MCL-1 provide a convenient platform for assaying BMI-1/MCL-1 inhibition.
(§3) After drug treatments, cells were washed twice with PBS, scraped, and resuspended in RIPA buffer containing protease inhibitors (20 mM Tris-HCl pH 7.5, 150 mM NaCl, 1 mM Na2EDTA, 1 mM EGTA, 1% NP-40, 1% sodium deoxycholate, 2.5 mM sodium pyrophosphate, 1 mM b-glycerophosphate, 1 mM Na3VO4, 1 μg/ml leupeptin). Cell lysate was sonicated for 5-10 min, and centrifuged at 14000 rpm for 20 minutes at 4° C. The supernatant was collected, determined for protein concentrations, and stored at −80° C. before further use.
(§4) BMI-1/MCL-1 expression levels may be assessed with western blot analysis. […] The denatured protein samples were then loaded in 10% Tris-Glycine SDS polyacrylamide gel for separating proteins. The power supply for the running condition was set at 80 V for running stacking gel and 100 V for separating gel, respectively. […] The power supply for the transfer condition was set at 300 mA, and the transfer was carried out on ice for 2.5 hours. The nitrocellulose membranes containing the denatured proteins were blocked with a solution containing 5% skim milk at room temperature for 1 hour.
After blocking, the membranes were washed with TBS containing 0.1% Tween-20 (TBST) for 5 minutes. […] After washing with TBST (5 min×3), the membranes were incubated with the secondary antibody (HRP-conjugated anti-mouse IgG, Jackson ImmunoReserch LABORATORIES INC., 1:5000) at room temperature for 1 hour. After washing with TBST (5 min×5), the membranes were incubated with chemiluminescence regent for 1 minute and imaged with a Bioluminiscent imaging system (Biospectrum-AC w/Bio Chemi Camera, UVP).
(In general: A western blot detects proteins with antibodies after separation by electrophoresis.)

The next assay concerns MCL-1. Description: MCL-1 protein expression by western blot in H1975 cells. Format: cell-based, human. As to conditions: for MCL-1 protein expression: 10 μM, 6 h, western blot; for inhibition of MCL-1 expression, dose dependence: different concentrations, western blot (#44: 6 h). On the procedure:
as §2, §3, §4
In addition, the membranes were also probed with antibodies against MCL-1 and tubulin. Tubulin functions as an internal control to assess the relative loadings in different lanes on the gel. Myeloid cell leukemia 1 (MCL1) is a pro-survival protein overexpressed in many cancers.

In assay [2] the test system is H1975-Luc cells. The assay is described as follows: In vivo anti-tumor test, orthotopic H1975-Luc mouse tumor model (FIG. 3). As to conditions: 1 mpk IV tail vein, 5 times/7 days, 3 weeks. Set-up: species or system SCID mice. The source says:
Mice were orthotopically implanted with H1975-luc cells (10^6 cells/mouse), and started to receive drug treatments for 3 weeks. The tumor growths were followed by non-invasive bioluminescent imaging, and quantified. […] Tarceva ([…]) was administrated orally (20 mpk, 5 times/7 days). N=5 to 7 for each group.
The derivatives showing potent anti-BMI-1/MCL-1 effects, such as compounds #43-45 (BI-43-BI-45), were selected for further in vivo anti-tumor test. The in vivo mouse tumor model was established as described below. • 1. SCID mice (70 mice, about […]) were quarantined for one week before lung cancer cells are implanted into their chest cavities. • 2. Before implanting the cancer cells into the mouse chest cavities, the mice were anesthetized with gas anesthesia. The mice were placed in a transparent acrylic box of 20 cm×10 cm×10 cm, which was connected with a flexible tubing to an anesthesia machine and an oxygen tank. Then, an appropriate amount of anesthesia (Isoflurane) was introduced into the anesthesia machine and the valve is open. […] One week after intra-thoracic implant of cancer cells, a luminescence reagent (D-luciferin) was injected into the abdominal cavities of the mice. […]
After establishment of the tumors in mice, the test compounds were administered at the indicated doses and the tumor sizes were monitored using bioluminescence. […]

In assay [3] the test system is H1975-luc cells. The assay is described as follows: Orthotopic H1975-Luc model, treatment starting 3 weeks after tumor implantation (FIG. 5). It is filed as in vivo, mice. As to conditions: for tumor inhibition rate: day 21.
Description: Mice were orthotopically implanted with H1975-luc cells (10^6 cells/mouse). On day 0 (defined as 3 weeks after tumor implantation), mice were imaged and started to receive drug treatments for 3 weeks (5 times/week). The tumor growths were followed by non-invasive imaging weekly.
as §1
In the second model, BI-44 was administrated starting 3 weeks after tumor implantation (FIG. 5A) when all the mice contained defined luciferase signals in lungs. Then, tumor growths were followed for 3 weeks (FIG. 5A). Mice were orthotopically implanted with H1975-Luc cells (10^6 cells/mouse). On day 0 (defined as 3 weeks after tumor implantation), mice were imaged and started to receive drug treatments for 3 weeks (5 times/week). The tumor growths were followed by non-invasive imaging weekly.

Take `CN(C)C/C=C/C(=O)Nc1cc2c(Nc3ccc(F)c(Cl)c3)ncnc2cc1O[C@H]1CCOC1` [Afatinib, reference compound]: in the assay with H1975-luc cells [1] (Afatinib 20 mpk orally, day 28), the “tumor inhibition rate as compared to control” value is “around 80%”.

Consider `CCc1ccc(C(=O)Nc2cccc(-c3cccc4cc[nH]c34)c2)cc1` [Compound 44, N-(3-(1H-indol-7-yl)phenyl)-4-ethylbenzamide], for which the BMI-1 protein expression entry in the assay with BMI-1 is reported as “significantly reduced”. Besides, the “inhibition of BMI-1 expression, dose dependence” value is “inhibits the expressions of BMI-1 and MCL-1 in a dose-dependent manner” with BMI-1; “effectively inhibited the expressions of BMI-1 and MCL-1 at sub-μM concentrations” in the assay on BMI-1 (listed as #44). In the assay on MCL-1, the MCL-1 protein expression result is “significantly reduced”. In addition, the “inhibition of MCL-1 expression, dose dependence” value was “inhibits the expressions of BMI-1 and MCL-1 in a dose-dependent manner” in the assay on MCL-1; “effectively inhibited the expressions of BMI-1 and MCL-1 at sub-μM concentrations” in the assay with MCL-1 (listed as #44). The tumor-free rate was 62.5% with H1975-luc cells [1] (day 14) and 37.5% in the assay on H1975-luc cells [1] (day 28). The “tumor inhibition rate as compared to control” value with H1975-luc cells [1] (BI-44 3 mpk IV, day 28) is recorded as “around 80%”. The “bioluminescent intensities in mice lungs” value with H1975-luc cells [1] (BI-44 3 mpk IV, days 14 and 28) is given as “significantly reduced bioluminescent intensities”. For the same compound, in the assay on H1975-Luc cells [2], the “anti-tumor growth effects (bioluminescence)” value was “most significant anti-tumor growth effects”. Also, the tumor inhibition rate entry in the assay with H1975-luc cells [3] (3 mpk IV) and with H1975-luc cells [3] (9 mpk IV) was “around 90%” each time. The tumor growth inhibition result with H1975-luc cells [3] (IV 5 times/week for 3 weeks, 1, 3, 9 mpk) is given as “significantly inhibited tumor growth in a dose-dependent manner”.

For `O=C(Nc1cccc(Cl)c1)Nc1cccc(-c2cccc3cc[nH]c23)c1` [Compound 45], the BMI-1 protein expression entry with BMI-1 was “significantly reduced”. Further, in the assay with MCL-1, the MCL-1 protein expression entry was “significantly reduced”.

For `COc1cc(Br)c(Nc2nc(-c3c(C)nc4ncccn34)cs2)c(Br)c1` [Compound 43], the BMI-1 protein expression result with BMI-1 is listed as “significantly reduced”. For the same compound, the MCL-1 protein expression result with MCL-1 is “significantly reduced”.
